Data on 16 compounds can be found in patent publication US5935982A, “Methods of treating retroviral infection and compounds useful therefor” (The University of North Carolina at Chapel Hill, priority 1997, dated 1999).

For data set [1], the target named is T1, HIV-1 integrase (Human immunodeficiency virus type 1 group M subtype B, UniProt P04585).
T1 construct: using the integrase coding domain from the HXB2 clone; made in house; host or cells: E. coli
The data set is described as follows: Integrase inhibition assay (site-specific cleavage/joining of labeled oligonucleotide substrate). It is filed as biochemical, HIV-1 (HXB2 clone). Particulars: initial screening at 10 μM; assay in duplicate. On the procedure: Purification of Integrase Protein. Integrase was overproduced in E. coli from an inducible plasmid containing the integrase sequence under control of a lacI-regulated T7 polymerase using the integrase coding domain from the HXB2 clone of HIV-1 DNA (L. Ratner et al, AIDS Res. Hum. Retroviruses 3:57 (1987)), pT7fl1-IN. A one liter culture at an O.D. of 0.6 was induced by the addition of IPTG to 0.5 mM. After three hours, the cells were harvested by centrifugation and the pellets were stored at -70° C.
The integrase protein was purified by a modification of the method of Sherman and Fyfe, Proc. Natl. Acad. Sci. USA 87:5119 (1990). The cells were lysed by thawing in a buffer (50 mM Tris-HCl pH 7.5, 5 mM dithiothreitol, 1 mM EDTA, 1 mg/ml lysozyme) on ice at 6 ml/g bacterial pellet for 30 minutes, and then incubating at 37° C. for 5 minutes. The lysate was centrifuged at 12,000×g for one hour. The pellets were resuspended in 50 mM Tris-HCl, pH 7.5, 1 mM dithiothreitol, 1 mM EDTA, 1M NaCl (4 ml/g original bacteria). The homogenate was stirred for 30 minutes at 4° C. and recentrifuged for 30 minutes at 12,000×g.
The supernatant was made 0.8M in ammonium sulfate by the slow addition of powder with stirring over a 30 minute period. The extract was then centrifuged to remove any precipitate and applied to a phenyl sepharose column. After a 50 ml wash with high salt buffer (50 mM Tris-HCl, 1 mM EDTA, 5 mM DTT, 2M NaCl), the protein was eluted with a gradient from high salt to O salt buffer containing 10% (weight/vol) glycerol and further purified through a G75 Sephadex column to remove background nuclease. A one liter culture generates enough integrase activity to perform over a thousand drug inhibition assays. […]
Cleavage of specific sites is assessed as described in Sherman et al., supra, except that the assay buffer was the same as that reported by Chow et al, Science 255:723 (1992). The substrate employed is the same as that described for use in the dumbell assay described in Chow et al., J. Virol. 68:7869 (1994), the disclosure of which is incoroprated herein by reference in its entirety. Essentially, the assay is performed with an oligonucleotide of 31 nucleotides that is self-annealing to form a dumbell shape with a nick therein. This substrate mimics the integrated virus and is specifically recognized by integrase to release 2 fragments. When the substrate is end-labeled with γ^32 P-ATP and T4 polynucleotide kinase, and treated with integrase protein, the product is site-specific cleavage of the substrate to form a very different molecular weight when electrophoresed on a denaturing polyacrylamide gel. This allows the reaction to be more easily quantitated with the phosphorimager. This assay represents the step of the integrase reaction where integrase completes its action. The IC50 value reported in Table 1 is generated by regression analysis of the percent control reaction with integrase at various drug concentrations. Initial screening of the compounds was performed at a constant 10 μM concentration for each test compound. Those with activity at 10 μM, were then used to identify IC50 values.
The other assay used consisted of the single 20 mer oligonucleotides corresponding to either the U5 or U3 ends of HIV-1 are end-labeled with ^32 P, annealed with its complement, purified, and used under the same conditions as described above for the endonuclease assay. Reaction products are denatured with formamide, electrophoresed through 20% denaturing polyacrylamide gels and visualized by autoradiography. Both cleavage and ligation activity can be assessed from one gel. To assess the ligation activity alone, "precleaved" substrate that had the -2 cleavage artificially produced by using a radiolabelled 18 mer oligonucleotide was also used for some experiments
Testing as Integrase Inhibitors. Integrase overproduced in E. coli was purified as described above in accordance with Sherman et al, supra, and used in drug inhibition assays. […]

A short description of data set [2]: in vitro. It is filed as cell-based. The conditions noted are these: human, cem and magic cells. On the procedure:
(§1) Cell lines used were CEM cells, a human T-cell lymphona cell line, A. Kaplan et al, J. Virol. 67:4050-5 (1993), and Magic cells, J. Kimpton et al, J. Virol. 66:2232 (1992). The CEM cells were grown in RPMI-1640 medium supplemented with 5% FCS. The Magic Cells, a HELA derivative, were grown in DMEM/H supplemented with 5% FCS, G418 (20 mg/ml) and Hygromycin (10 mg/ml). The HIV isolate was strain HXB2, originally from Lee Ratner in the laboratory of Robert Gallo at the National Institutes of Health.
Three different toxicity tests were performed on the cell lines used to measure virus infectivity.
The initial test for toxicity utilized the XTT Assay as described by Weislow et al, J. Natl. Cancer Inst. 81:577 (1989). This is the standard assay used originally to measure cell toxicity by potential reverse transcriptase inhibitors. Briefly, cells were grown to cells/ml and drug dilutions were added to the medium. After two days incubation, XTT reagent is added and incubation is continued for 4 hours at 37° C. Following incubation, the plates are read at 450 minus 650 nm (the 650 value is the backround value which is automatically subtracted) with controls of media+XTT reagent without cells, and cells+media without reagent. Also a control of cells+media+XTT reagent was run for each plate. Medium without phenol red was employed to minimize background color as the XTT reagent goes from colorless (unreduced) to orange (reduced). The XTT reagent was freshly prepared on the day of assay as follows: 1 mg/ml of XTT in 0.01M phenazine methosulfate. The phenazine methosulfate solution was prepared ahead of time and stored at 4° C. in a dark bottle. The XTT reagent is added to the microtiter wells at 24 ul per 100 ul of medium. The O.D. was measured on a Vmax plate reader from Molecular Devices Co. with data reduction. Results are expressed as percent of untreated controls. The least toxic compounds were Compounds A, B, and F with toxicities values at 500 μM or greater.
Next, a plating efficiency test measured the ability of the cell to grow after incubation with drug for a number of days. Magic cells were grown from an initial cell concentration of 0.8×104 with or without various concentrations of test compound for 6 days. Plating ability of the cells was assessed by plating dilutions of each culture on plastic. Colony forming units were determined after growth for two to four days by counting colonies after staining the plates. Each sample was plated in duplicate and the colony number averaged.
The third test for cell toxicity assessed growth rate in the presence of the test compound versus a control culture. Magic cells were grown over a period of 15 days with or without various dilutions of test compound. Aliquots were removed every other day and the cells were counted in a hemocytometer.

The subject of data set [3] is HIV-1. The data set is described as follows: HIV-1 inhibition assay in magic (magi) cells, β-galactosidase expressing cells counted. It is filed as cell-based, HIV-1 strain HXB2. Particulars: for IC50: Human immunodeficiency virus 1, MAGI, magic cells, HIV-1, drug pretreatment 4 hours, fixed two days later, read-out: Anti-HIV IC50; for Index TD50/IC50: ratio of toxicity TD50 to anti-HIV IC50. As to the method: as §1
The magi cell assay described by Kimpton et al., supra, was used as described. This assay identifies individual cells infected with HIV-1 by the expression of tat, which transactivates an endogenous copy of the HIV-1 LTR linked to the lac2 reporter gene after integration, inducing β-galactosidase expression when Xgal is added to the cell medium. Any cell with integrated HIV-1 will turn blue. Thus, this assay provides a convenient way to determine the effect of HIV inhibitors at any early step up through the expression of tat, including the inhibition of integration.
The magic cells are plated in twelve-well plates one day prior to infection. The standard assay involves infection with approximately 200 infectious units of HIV-1. This gives an approximately 20 to 1 ratio of signal to background and sufficient numbers of infectious events to quantitate dim effects. The cells are pretreated with drug for 4 hours prior to virus infection, and virus adsorption takes place for 1 hour. The cells are washed with plain medium, and then medium with inhibitor is placed back on the cells. Two days later the cells are fixed after integration with Xgal the indicator reagent for β-galactosidase production. The number of β-galactosidase expressing cells are quantitated by light microscopy.
The results of comparisons of infectious units with or without various concentrations of the bis-benzimididazoles drugs in the magic cell assay are expressed as IC50 values and are compiled in Table 2 above. Note that the best anti-HIV compounds were generally also the best integrase inhibitors.

As to `N=C(N)c1ccc2nc(-c3cccc(-c4nc5ccc(C(=N)N)cc5[nH]4)c3)[nH]c2c1` [S-1], in data set [1], the IC50 was found to be 1 µM. The same compound displayed a CC50 in data set [2] of 40 µM.

In data set [1], `c1cc(-c2nc3cc(C4=NCCN4)ccc3[nH]2)cc(-c2nc3cc(C4=NCCN4)ccc3[nH]2)c1` [S-2] came in with an IC50 of more than 10 µM.

For the compound `CC(C)NC(=N)c1ccc2nc(-c3ccc4c(c3)Cc3cc(-c5nc6ccc(C(=N)NC(C)C)cc6[nH]5)ccc3-4)[nH]c2c1` [S-3], the IC50 in data set [1] is less than 10 µM.

`CC(C)NC(=N)c1ccc2nc(-c3cnc(-c4nc5ccc(C(=N)NC(C)C)cc5[nH]4)o3)[nH]c2c1` [S-4]: in data set [1], the IC50 is less than 10 µM.

On to `N=C(N)c1ccc2nc(-c3ccc4oc(-c5nc6ccc(C(=N)N)cc6[nH]5)cc4c3)[nH]c2c1` [S-5], for which the IC50 in data set [1] was less than 10 µM; in data set [3], 19.8 µM.

In data set [1], `N=C(NC1CCCC1)c1ccc2nc(-c3ccc4oc(-c5nc6ccc(C(=N)NC7CCCC7)cc6[nH]5)cc4c3)[nH]c2c1` [S-6] returned an IC50 of 1.4 µM.

As to `Cn1c(-c2nc3ccc(C(=N)N)cc3[nH]2)ccc1-c1nc2ccc(C(=N)N)cc2[nH]1` [S-7], the IC50 in data set [1] turned out to be 0.85 µM. The same compound came in with a CC50 in data set [2] of 90.3 µM.

Turning to `N=C(N)c1ccc2nc(-c3ccc(-c4nc5ccc(C(=N)N)cc5[nH]4)[nH]3)[nH]c2c1` [S-8], half-maximal inhibition in data set [1] (IC50) was put at 0.5 µM.

For `c1cc2[nH]c(-c3ccc(-c4nc5cc(C6=NCCN6)ccc5[nH]4)[nH]3)nc2cc1C1=NCCN1` [S-9], the IC50 in data set [1] is more than 10 µM. Further, the CC50 in data set [2] is 213 µM.

In the case of `c1cnc(-c2ccc3nc(-c4ccc(-c5nc6ccc(-c7ncccn7)cc6[nH]5)[nH]4)[nH]c3c2)nc1` [S-10], the IC50 in data set [1] is less than 10 µM.

For the compound `Cn1c(-c2nc3ccc(C(=N)NC4CCCC4)cc3[nH]2)ccc1-c1nc2ccc(C(=N)NC3CCCC3)cc2[nH]1` [S-11], the IC50 in data set [1] is more than 10 µM. This compound had a CC50 in data set [2] of 732 µM.

`CC(C)NC(=N)c1ccc2nc(-c3ccc(-c4nc5ccc(C(=N)NC(C)C)cc5[nH]4)n3C)[nH]c2c1` [S-12] displayed a half-inhibitory concentration (IC50) in data set [1] of less than 10 µM. Further, in data set [2], the CC50 was 289 µM.

In turn, `N=C(NC1CCCC1)c1ccc2nc(-c3ccc(-c4nc5ccc(C(=N)NC6CCCC6)cc5[nH]4)[nH]3)[nH]c2c1` [S-13] registered an IC50 in data set [1] of less than 5 µM. In data set [2], this compound yielded a CC50 of 78.2 µM.

`N=C(N)c1ccc2nc(-c3ccc(-c4nc5ccc(C(=N)N)cc5[nH]4)o3)[nH]c2c1` [S-14]: the values for the IC50 in data set [1] and in data set [3] were 0.9 µM and 26.7 µM, respectively. In data set [2], this compound came in with a CC50 of 81.5 µM. For the same compound, the “Index TD50/IC50” value in data set [3] turned out to be 3.05.

`c1cc2nc(-c3ccc(-c4nc5ccc(C6=NCCN6)cc5[nH]4)o3)[nH]c2cc1C1=NCCN1` [S-15] showed an IC50 in data set [1] of 0.6 µM. The compound further registered a CC50 in data set [2] of 41.9 µM. Besides, in data set [3], the IC50 is 8.01 µM and the “Index TD50/IC50” value is 5.23.

For the compound `CC(C)NC(=N)c1ccc2nc(-c3ccc(-c4nc5ccc(C(=N)NC(C)C)cc5[nH]4)o3)[nH]c2c1` [S-16], the values for the IC50 in data set [1] and in data set [3] were less than 10 µM and 1.39 µM, respectively. The compound further displayed a CC50 in data set [2] of 238 µM. In addition, the “Index TD50/IC50” value in data set [3] turned out to be 170.88.

Usually IC50 stands for the midpoint of a concentration-inhibition curve. In general, CC50 refers to the concentration giving 50% cytotoxicity. A low value points to greater toxicity to the cells.
